We go through seven molecules from paper PMC7076710, “Synthesis, Identification, and Structure–Activity Relationship Analysis of GATA4 and NKX2-5 Protein–Protein Interaction Modulators” (Journal of Medicinal Chemistry, 2019).

For the data set, the system named is COS-1 cells. The experiment in a line: MTT assay (cell viability). The format is cell-based. The settings on record: for MTT.1µM / MTT.3µM / MTT.10µM / MTT.30µM: cell viability; for toxicity class in the MTT assay: 24-h exposure, classified at 10 μM. In general terms: Tetrazolium dyes change colour on reduction, which living cells bring about.

Turning to `CCN(CC)c1ccc(NC(=O)c2c(-c3ccccc3)noc2C)cc1` [Compound 1, N-[4-(Diethylamino)phenyl]-5-methyl-3-phenylisoxazole-4-carboxamide], the “toxicity class in the MTT assay” value is listed as “toxic (Toxic compounds (cell viability <90%))”. For the setting “COS-1 cells”, this molecule had an MTT.1µM of 98.55%, an MTT.3µM of 96.23%, an MTT.10µM of 89.96% and an MTT.30µM of 91.57%.
For `Cc1onc(-c2ccccc2)c1C(=O)N(C1=NC(C)CS1)c1ccc(Cl)cc1` (stereo not shown) [Compound 2], the “toxicity class in the MTT assay” value is “nontoxic (nontoxic compounds (cell viability >90%))”. Where the note is “COS-1 cells”, this molecule displayed an MTT.3µM of 105.13%, an MTT.10µM of 107.32% and an MTT.30µM of 87.3%.
Take `Cc1onc(-c2ccccc2)c1COc1ccc(C(=O)OCCC#N)cc1` [Compound 35a, 2-Cyanoethyl 4-[(5-Methyl-3-phenylisoxazol-4-yl)methoxy]benzoate]: the MTT.1µM is reported as 83.35, the MTT.3µM stood at 72.67, the MTT.10µM came to 66.11 and the MTT.30µM was determined as 61.55. The “toxicity class in the MTT assay” value was “most toxic”.
The molecule `CCN(CC)c1ccc(NC(=O)c2cnsc2)cc1` [Compound 47s] registered an MTT.1µM of 103.66, an MTT.3µM of 95.56, an MTT.10µM of 92.49 and an MTT.30µM of 105.44. The “toxicity class in the MTT assay” value is given as “nontoxic (nontoxic compounds (cell viability >90%))”.
Turning to `CCC(=O)N(Cc1ccc(N(CC)CC)cc1)c1c(-c2ccccc2)noc1C` [Compound 58], the MTT.1µM is on record as 99.35, the MTT.3µM amounted to 82.12, the MTT.10µM worked out at 76.17 and the MTT.30µM was 63.57. Besides, the “toxicity class in the MTT assay” value is on record as “most toxic”.
Molecule `COc1ccc(-c2cc(NC(=O)c3ccc(C(C)(C)C)cc3)n[nH]2)cc1` [Compound 72] gave an MTT.1µM of 110.93, an MTT.3µM of 101.15, an MTT.10µM of 102.37 and an MTT.30µM of 107.89. Moreover, the “toxicity class in the MTT assay” value is given as “nontoxic (nontoxic compounds (cell viability >90%))”.
With “N-[4-(Diethylamino)phenyl]-3-methyl-5-(4-methyl-1,2,3-thiadiazol-5-yl)isoxazole-4-carboxamide [Compound 47c]”, the MTT.1µM is listed as 88.76, the MTT.3µM worked out at 85.01, the MTT.10µM came to 81.61 and the MTT.30µM worked out at 78.65. Also, the “toxicity class in the MTT assay” value is listed as “high toxicity”.
